In publication PMC11387447 (Pharmacological Reports, 2024):
Like-named read-outs stand apart in the source and are kept apart here. Marks after values point to notes of the source that are not given here. Values belong to the compound of their own block, whether it stands above or below them.

Key:
[1] = Plasma pharmacokinetics of REG, M-2 and M-5 in rats after single oral REG with or without ATO (UPLC-MS/MS, non-compartmental analysis); format: in vivo, male Wistar rats; details: for increase of AUC0–t / increase of AUC0–∞: IREG+ATO group compared to control IIREG group; for Tmax / Vd/F / AUC(0-inf) / AUC(0-t) / Cmax / AUC0–t / AUC0–∞: n = 8; for AUC(0-inf) / AUC(0-t) / Cmax / AUC0–t / AUC0–∞: rat plasma; for Cmax as share of the REG Cmax: single dose of REG 20 mg/kg
Procedure: Nonetheless, no other experimental conditions were changed.
Next, 20 μL of acetonitrile was added. The samples were mixed for 10 min and then centrifuged for 10 min at 8500 rpm. 50 μL of the resulting supernatant was filtered and used for further analysis. Each sample was analyzed twice, and the arithmetic mean was determined from the surface areas obtained in the chromatogram.
The LC–MS/MS system consisted of a Xevo TQ-S-micro triple quadrupole mass spectrometer coupled with a UPLC Acquity I-class PLUS (Waters Corporation, Milford, MA, USA), and the Waters Software MassLynx V4.2 SCN1017 Software. A Cortecs UPLC C18 column (2.1 × 50 mm, 1.6 μm) was equipped with an Acquity UPLC BEH C18 VanGuard pre-column (2.1 × 5 mm, 3/Pk, Waters Corporation). The injection volume was 5 μL. The temperature of the autosampler was 4 °C, and the temperature of the column was 40 °C. Mobile phase A was composed of 0.1% aqueous formic acid solution (v/v), and phase B of acetonitrile: methanol and 0.1% formic acid aqueous solution at 1:3 (v/v) ratio. The total run time was 5 min. […] Positive electrospray ionization (ESI) multiple reaction monitoring (MRM) experiments were conducted for sample analysis. The Xevo TQ-S Micro Mass spectrometer (Waters) was run in the positive ion mode, and configured in the multiple reaction monitoring mode, for the detection of REG, REG-N-oxide (M-2), N-desmethyl-REG-N-oxide (M-5), and isotope-labelled REG-d3.
The data were collected and processed using the MassLynx Software (V 4.2 SCN 1017, Waters). The following settings were used for the Xevo TQ-S Micro Mass spectrometer: source temperature—150 °C, desolvation temperature—600 °C, nitrogen gas flow—900 L/h, capillary voltage 3.6 kV. Transition ion pairs (parent m/z—daughter m/z) were identified, using the MRM mode, for the following compounds: 482.95–270.08 and 288.02 for REG; 499.00–304.01, 252.16, and 229.00 for M-2; 485.94–202.02 and 228.98 for M-5; and 486.02–273.07 for REG-d3 as an IS.

[2] = IIIATO group: single oral ATO 20 mg/kg b.w. alone, rat plasma, n = 8; median (quartiles) or mean ± SD (CV %); adopted from previous study ref 12; cited from earlier work
[3] = parameters: method as in earlier work; details: mice, repeated oral 10 mg/kg of REG for 5 consecutive days; ref 27 (Zopf et al.); cited from earlier work
[4] = in the presence of ATO (IREG+ATO vs IIREG)
[5] = male, Wistar, rat, plasma, po, 20 mg/kg, IIREG group: single oral REG 20 mg/kg b.w. alone, median (quartiles)
[6] = male, Wistar, rat, plasma, po, 20 mg/kg, IREG+ATO group: single oral REG 20 mg/kg + ATO 20 mg/kg b.w., median (quartiles)
[7] = IIREG group: REG 20 mg/kg b.w. alone, median (quartiles)
[8] = IREG+ATO group: REG 20 mg/kg + ATO 20 mg/kg b.w., median (quartiles)
[9] = metabolite of REG, IIREG group: single oral REG 20 mg/kg b.w. alone, median (quartiles)
[10] = metabolite of REG, IREG+ATO group: single oral REG 20 mg/kg + ATO 20 mg/kg b.w., median (quartiles)

increase of AUC0–t [1]: 3.2 fold
increase of AUC0–∞ [1]: 3.2 fold
Gmean ratio (90% CI) of AUC0–t ([1]; IREG+ATO vs IIREG): 4.20 (3.57; 4.95)*
Gmean ratio (90% CI) of AUC0–∞ ([1]; IREG+ATO vs IIREG): 4.20 (3.56; 4.94)*
Gmean ratio (90% CI) of Cl/F ([1]; IREG+ATO vs IIREG): 0.26 (0.22; 0.30)*
Gmean ratio (90% CI) of Cmax ([1]; IREG+ATO vs IIREG): 3.72 (3.20; 4.32)*
Gmean ratio (90% CI) of Vd/F ([1]; IREG+ATO vs IIREG): 0.28 (0.22; 0.37)*
Gmean ratio (90% CI) of ka ([1]; IREG+ATO vs IIREG): 1.60 (1.09; 2.37)
Gmean ratio (90% CI) of kel ([1]; IREG+ATO vs IIREG): 0.91 (0.75; 1.10)
Gmean ratio (90% CI) of t1/2 ([1]; IREG+ATO vs IIREG): 1.10 (0.91; 1.33)
Gmean ratio (90% CI) of tmax ([1]; IREG+ATO vs IIREG): 0.85 (0.63; 1.17)*
differences in tmax, ka, kel, t0.5 ([1]; IREG+ATO vs IIREG): No statistically significant differences
decrease of Cl/F [1, 4]: 72.7%
decrease of Vd/F [1, 4]: 71.7%
Tmax [1, 5]: 6 h
Vd/F [1, 5]: 1.98 L
AUC(0-inf) [1, 5]: 36000 ng·h/mL
AUC(0-t) [1, 5]: 35800 ng·h/mL
Cmax ([1]; male, Wistar, rat, plasma, po, 20 mg/kg, IIREG group: single oral REG 20 mg/kg b.w. alone, median (quartiles), read-out: Cmax): 1880 ng/mL
Tmax [1, 6]: 5 h
Vd/F [1, 6]: 0.51 L
AUC(0-inf) [1, 6]: 163000 ng·h/mL
AUC(0-t) [1, 6]: 163000 ng·h/mL
Cmax ([1]; male, Wistar, rat, plasma, po, 20 mg/kg, IREG+ATO group: single oral REG 20 mg/kg + ATO 20 mg/kg b.w., median (quartiles), read-out: Cmax): 7290 ng/mL
SMILES: CNC(=O)c1cc(Oc2ccc(NC(=O)Nc3ccc(Cl)c(C(F)(F)F)c3)c(F)c2)ccn1 [REG, regorafenib, reference compound]

SMILES: CC(C)c1c(C(=O)Nc2ccccc2O)c(-c2ccccc2)c(-c2ccc(F)cc2)n1CC[C@@H](O)C[C@@H](O)CC(=O)O [2-OH ATO, orthohydroxy atorvastatin]
AUC0–t [2]: 544.83 (448.90; 682.46) ng × h/mL
Cmax [2]: 126.09 (87.49; 276.16) ng/mL

SMILES: CC(C)c1c(C(=O)Nc2ccc(O)cc2)c(-c2ccccc2)c(-c2ccc(F)cc2)n1CC[C@@H](O)C[C@@H](O)CC(=O)O [4-OH ATO, parahydroxy atorvastatin]
AUC0–∞ [2]: 18.32 (12.89; 24.73) ng × h/mL

M-2/REG ratio AUC0–t [1, 7]: 0.26 (0.20; 0.31)
M-2/REG ratio AUC0–∞ [1, 7]: 0.30 (0.26; 0.38)
M-2/REG ratio Cmax [1, 7]: 0.18 (0.13; 0.28)
increase of AUC0–t [1]: 4.5 fold
increase of AUC0–∞ [1]: 3.6 fold
Cmax as share of the REG Cmax ([1]; IREG+ATO group): 24.14%
M-2/REG ratio AUC0–t [1, 8]: 0.31 (0.27; 0.45)
M-2/REG ratio Cmax [1, 8]: 0.27 (0.20; 0.33)
Gmean ratio (90% CI) of AUC0–t ([1]; IREG+ATO vs IIREG): 5.47 (4.30; 6.96)*
Gmean ratio (90% CI) of AUC0–∞ ([1]; IREG+ATO vs IIREG): 4.55 (3.70; 5.60)*
Gmean ratio (90% CI) of Cmax ([1]; IREG+ATO vs IIREG): 5.03 (3.82; 6.62)*
Gmean ratio (90% CI) of M-2/REG ratio AUC0–t ([1]; IREG+ATO vs IIREG): 1.30 (0.96; 1.76)*
Gmean ratio (90% CI) of M-2/REG ratio AUC0–∞ ([1]; IREG+ATO vs IIREG): 1.08 (0.81; 1.46)*
Gmean ratio (90% CI) of M-2/REG ratio Cmax ([1]; IREG+ATO vs IIREG): 1.35 (0.60; 3.07)*
Cmax as share of the REG Cmax ([1]; REG group): 15.28%
AUC0–t [1, 9]: 9548.40 (8488.70; 11,642.31) ng × h/mL
AUC0–∞ [1, 9]: 10,947.48 (9718.99; 12,781.14) ng × h/mL
Cmax [1, 9]: 302.15 (249.90; 395.95) ng/mL
Cmax [1, 10]: 1647.45 (1374.65; 1994.65) ng/mL
SMILES: CNC(=O)c1cc(Oc2ccc(NC(=O)Nc3ccc(Cl)c(C(F)(F)F)c3)c(F)c2)cc[n+]1[O-] [M-2, regorafenib N-oxide]
Cmax as share of the REG Cmax [3]: 15.17%
AUC0–t [1, 10]: 52,182.11 (40,840.43; 64,989.90) ng × h/mL
AUC0–∞ [1, 10]: 52,438.36 (41,030.58; 65,561.89) ng × h/mL

M-5/REG ratio Cmax [1, 7]: 0.01 (0.01; 0.02)
increase of AUC0–t [1]: 6.0 fold
increase of AUC0–∞ [1]: 6.0 fold
Cmax as share of the REG Cmax ([1]; IREG+ATO group): 2.12%
M-5/REG ratio Cmax [1, 8]: 0.02 (0.02; 0.02)
Gmean ratio (90% CI) of AUC0–t ([1]; IREG+ATO vs IIREG): 7.13 (6.13; 8.29)*
Gmean ratio (90% CI) of AUC0–∞ ([1]; IREG+ATO vs IIREG): 7.16 (6.21; 8.26)*
Gmean ratio (90% CI) of Cmax ([1]; IREG+ATO vs IIREG): 5.65 (5.06; 6.31)*
Gmean ratio (90% CI) of M-5/REG ratio AUC0–t ([1]; IREG+ATO vs IIREG): 1.70 (1.42; 2.03)
Gmean ratio (90% CI) of M-5/REG ratio AUC0–∞ ([1]; IREG+ATO vs IIREG): 1.71 (1.43; 2.03)
Gmean ratio (90% CI) of M-5/REG ratio Cmax ([1]; IREG+ATO vs IIREG): 1.52 (0.68; 3.39)*
Cmax as share of the REG Cmax ([1]; REG group): 1.17%
increase of M-5/REG ratio for AUC0–t ([1]; in the presence of ATO): 100.0%
increase of M-5/REG ratio for AUC0–∞ ([1]; in the presence of ATO): 100.0%
increase of M-5/REG ratio for Cmax ([1]; in the presence of ATO): 66.7%
AUC0–t [1, 9]: 791.48 (703.15; 884.23) ng × h/mL
AUC0–∞ [1, 9]: 833.10 (752.92; 929.13) ng × h/mL
Cmax [1, 9]: 26.90 (23.40; 28.65) ng/mL
AUC0–t [1, 10]: 5501.55 (5310.04; 5967.36) ng × h/mL
AUC0–∞ [1, 10]: 5919.80 (5556.63; 6371.62) ng × h/mL
Cmax [1, 10]: 150.05 (136.75; 155.40) ng/mL
SMILES: NC(=O)c1cc(Oc2ccc(NC(=O)Nc3ccc(Cl)c(C(F)(F)F)c3)c(F)c2)cc[n+]1[O-] [M-5, N-desmethyl regorafenib N-oxide]
Cmax as share of the REG Cmax [3]: 1.27%
